The source of these data is BindingDB's records for doi:10.3109/14756366.2012.715288 (Ankara University, 2013).

Test [1] has as its target Tyrosine-protein kinase Lyn (Homo sapiens, UniProt P07948). The experiment in a line: In Vitor Src Tyrosine Kinase Activity Assay. Particulars: 22 °C. The procedure:
(§1) Kinase activity (Src-family kinases, Hck, Lyn, Fyn, and c-Src) and the effect of the molecules were determined by ProFluor Src-Family Kinase Assay Kit (Promega). […] The compounds were dissolved in 10% DMSO and tested at 1, 10 and 100 μM concentrations. Briefly, the molecules were mixed with a reaction buffer that included a specific substrate for Src-family kinases (R110), a control substrate and the kinase. The reaction was initiated by the addition of ATP. After incubating the 96-well reaction plate at 22°C for 1 h, protease solution was added to each well and the plate was incubated for 1 h.

Test [2] deals with Proto-oncogene tyrosine-protein kinase Src (Homo sapiens, UniProt P12931). As to the kind of experiment: In Vitor Src Tyrosine Kinase Activity Assay. Particulars: 22 °C. The procedure: as §1

What is called IC50 is the concentration that inhibits the measured activity by half.

Sequence of Proto-oncogene tyrosine-protein kinase Src (P12931 2-536 limits assumed): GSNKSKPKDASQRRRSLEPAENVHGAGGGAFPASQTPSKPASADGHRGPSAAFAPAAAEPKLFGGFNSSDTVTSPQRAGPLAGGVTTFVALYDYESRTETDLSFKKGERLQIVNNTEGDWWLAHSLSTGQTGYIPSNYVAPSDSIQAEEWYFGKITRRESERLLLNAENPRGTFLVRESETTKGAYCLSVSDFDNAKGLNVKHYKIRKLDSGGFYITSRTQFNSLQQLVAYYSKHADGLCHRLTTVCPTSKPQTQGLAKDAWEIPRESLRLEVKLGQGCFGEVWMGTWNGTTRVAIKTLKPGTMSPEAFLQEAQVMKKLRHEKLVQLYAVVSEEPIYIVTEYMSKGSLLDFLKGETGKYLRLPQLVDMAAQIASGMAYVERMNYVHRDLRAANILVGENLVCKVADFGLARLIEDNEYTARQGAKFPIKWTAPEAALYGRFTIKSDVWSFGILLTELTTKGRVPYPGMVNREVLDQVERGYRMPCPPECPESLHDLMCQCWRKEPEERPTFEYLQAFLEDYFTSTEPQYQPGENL
Sequence of Tyrosine-protein kinase Lyn (P07948 whole entry): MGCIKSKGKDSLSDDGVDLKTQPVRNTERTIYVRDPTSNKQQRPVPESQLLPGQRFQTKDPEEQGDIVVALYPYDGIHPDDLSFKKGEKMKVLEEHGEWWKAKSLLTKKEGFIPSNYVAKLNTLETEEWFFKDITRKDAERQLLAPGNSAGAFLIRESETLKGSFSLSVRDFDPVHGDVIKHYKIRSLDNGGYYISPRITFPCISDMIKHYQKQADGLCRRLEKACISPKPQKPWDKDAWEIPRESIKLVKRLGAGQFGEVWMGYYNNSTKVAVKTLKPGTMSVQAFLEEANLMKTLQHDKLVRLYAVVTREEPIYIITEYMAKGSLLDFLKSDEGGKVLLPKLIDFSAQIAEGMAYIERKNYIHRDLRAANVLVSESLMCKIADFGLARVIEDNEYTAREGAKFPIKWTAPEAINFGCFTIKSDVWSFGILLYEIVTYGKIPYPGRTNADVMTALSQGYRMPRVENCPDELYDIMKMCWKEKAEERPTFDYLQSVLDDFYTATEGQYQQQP

Compound `CN1CCN(C2CCC(n3cc(-c4ccc(Oc5ccccc5)cc4)c4c(N)ncnc43)CC2)CC1` (centres undefined) [A-419259] showed an IC50 in test [1] of 0.0003 µM.

The compound `COc1cccc(-c2cn(-c3ccc(CCN4CCC(O)CC4)cc3)c3ncnc(N)c23)c1` [CGP77675] showed an IC50 in test [2] of 0.0004 µM.

Compound `COc1ccc(CCCC(=O)NCc2c[nH]c3nc(N)[nH]c(=O)c23)cc1OC` [N-((2-Amino-4-oxo-4,7-dihydro-3H-pyrrolo[2,3-d]pyrimidin-5-yl)methyl)-4-(3,4-dimethoxyphenyl)butanamide (5)] registered an IC50 in test [2] of 21 µM.

Compound `Cc1ccc(C(=O)NCc2c[nH]c3nc(N)[nH]c(=O)c23)s1` [N-[(2-Amino-4-oxo-4,7-dihydro-3H-pyrrolo[2,3-d]pyrimidin-5-yl)methyl]-5-methylthiophene-2-carboxamide (7)] came in with an IC50 in test [2] of 16 µM. This IC50 and that of the compound before are within 1.5-fold of each other.
